Test results reported in article PMC8620685, “Effect of Selected Silyl Groups on the Anticancer Activity of 3,4-Dibromo-5-Hydroxy-Furan-2(5H)-One Derivatives” (Pharmaceuticals, 2021).
Read-outs that look alike come from different tables or passages of the source.

Tests used:
A549 = test: MTT assay, NSCLC cell line A549; format: cell-based, human; conditions: for IC50: Homo sapiens, A549, MTT, 72 h incubation, read-out: IC50 (cytotoxicity), A549; for SI: selectivity, A549 versus BEAS-2B
Procedure: (§1) One of the major drawbacks of currently used anticancer drugs is their low selectivity, which often leads to undesired side effects that may be harmful to patients. Overcoming this challenging task requires special attention at the pre-clinical development level. To check whether silyl group incorporation may affect the selectivity of compounds towards cancer cells, MBA and all its new silyl derivatives were tested for their efficacy on noncancerous BEAS-2B and cancerous A549 cells line. […] In contrast, compounds 3a and 3d were more cytotoxic to A549 cells with SI values 6.05 and 1.72, respectively. Strikingly, those two compounds have similar cLogP values 3.08 and 3.22, respectively.
(§2) Human cells lines: colon cancer (HCT-116 wt, HT-29), non-small lung carcinoma (A549), and bronchial epithelial cells (BEAS-2B) were obtained from American Type Culture Collection (ATCC, Manassas, VA, USA). Isogenic cell line HCT 116 p53^−/− (deleted both p53 alleles) were a gift from Dr. Bert Vogelstein. Other cell lines, namely MCF-7, SJSA-1, U2OS, HepG2, and Hep3B were received from the collection stored at Centre of Biotechnology of Silesian University of Technology. All cells were grown in DMEM with a high glucose medium (Sigma-Aldrich, Taufkirchen, Germany) supplemented with 10% (v/v) inactivated fetal bovine serum (FBS) (EURx, Gdańsk, Poland) and 1% antibiotics (10,000 μg/mL of streptomycin and 10,000 units/ml of penicillin) (Sigma-Aldrich, Taufkirchen, Germany) at 37 °C in humidified 5% CO2. The maximum concentration of DMSO in the culture media was 0.4%.
(§3) 5 × 10^3 cells per well for the MCF-7 cell line and 2.5 × 10^3 cells per well for the other cell lines were seeded in 96-well plates to adhere for 24 h. Afterward, the cells were treated with tested compounds. After 72 hours of incubation, 50 μL 0.5 mg/ml solution of MTT (3-(4,5-dimethylthiazol-2-yl)-2,5-diphenyl-2H-tetrazolium bromide) were added to each well and the plates were incubated for 3 h at 37 °C. Next, the MTT solution was removed from the plates and formed formazan crystals were dissolved in 2-propanol (Avantor Performance Materials, Gliwice, Poland) containing 0.04 M hydrochloric acid (Avantor Performance Materials, Gliwice, Poland). The absorbance was measured at 570 nm wavelength using a multiwall plate reader (BioTek, Winooski, VT, USA). The experiment was performed at a minimum of 3 independent replicates. Cell viability was set as a percentage versus vehicle control. IC50 was defined as a concentration of a drug that decreased cell viability by 50% relative to the untreated control.

HCT 116 p53−/− = test: MTT assay, HCT 116 p53−/−; format: cell-based; conditions: Homo sapiens, read-out: IC50 (cytotoxicity), HCT 116 p53−/−
Procedure: (§4) The in vitro antitumor activities of the MBA and its derivatives (Table 2) were assayed against a panel of human cancer cell lines (HCT116, HCT-116 ^−/−p53, HT-29, MCF-7, SJSA-1, U2OS, HepG2 and Hep3B) using the MTT assay. As a reference drug we used 5-fluorouracil (5-FU). […] On the basis of in vitro antiproliferative activities, compounds 3b and 3c were selected for further mechanistic studies in the HCT-116 cell line.
as §2, §3

[1] = MTT assay, normal bronchial epithelium cell line BEAS-2B; format: cell-based; conditions: human, BEAS-2B cells (noncancerous bronchial epithelial cells); MTT, 72 h incubation; noncancerous cells; read-out: IC50 (cytotoxicity), BEAS-2B
Procedure: as §1, §2, §3

MCF-7 = test: MTT assay, MCF-7; format: cell-based, human
Procedure: as §4, §2, §3

HCT 116 wt = test: MTT assay, HCT 116 wt; format: cell-based, human
Procedure: as §4, §2, §3

HT-29 = test: MTT assay, HT-29; format: cell-based; conditions: Homo sapiens, read-out: IC50 (cytotoxicity), HT-29
Procedure: as §4, §2, §3

Hep3B = test: MTT assay, Hep3B; format: cell-based; conditions: Homo sapiens, MTT, 72 h incubation, read-out: IC50 (cytotoxicity), Hep3B
Procedure: as §4, §2, §3

HepG2 = test: MTT assay, HepG2; format: cell-based; conditions: Homo sapiens, HepG2; MTT, 72 h incubation; read-out: IC50 (cytotoxicity), HepG2
Procedure: as §4, §2
as §3, with “The experiment was performed at a minimum of 3 independent replicates. Cell viability was set as a percentage versus vehicle control. IC50 was defined as a concentration of a drug that decreased cell viability by 50% relative to the untreated control.” left out

SJSA-1 = test: MTT assay, SJSA-1; format: cell-based; conditions: Homo sapiens, SJSA-1; MTT, 72 h incubation; read-out: IC50 (cytotoxicity), SJSA-1
Procedure: as §4, §2, §3

HCT-116 cells = test: Annexin V-FITC/PI apoptosis assay; format: cell-based, human; conditions: HCT-116, statement in discussion
Procedure: To verify this thesis, we utilized annexin-V/PI double staining of cells, which were subsequently subjected to flow cytometric analysis.
The HCT 116 cells were seeded in 6-well plate (Nunc, ThermoFisher, Waltham, MA, USA) at a density of 5 × 10^4 cells/well and allowed to attach. After 24 h the medium was replaced with tested compounds. The cells were then incubated for 24 h at 37 °C. Next, both floating and adherent cells were harvested and centrifuged at 600× g. The cells were washed with PBS (phosphate buffered saline) (Sigma-Aldrich, Taufkirchen, Germany) and we followed instructions from the manufacturer of the Annexin V-FITC Apoptosis Detection Kit (Biotool, Jupiter, FL, USA). Fluorescence was measured using a Becton Dickinson FACS Aria III sorter (BD Company, San Diego, CA, USA). Experiments were repeated at least twice. Data were analyzed using FCE Express 7 Software (DeNovo Software, Pasadena, CA, USA).

U2OS = test: MTT assay, U2OS; format: cell-based; conditions: Homo sapiens, MTT, 72 h incubation, read-out: IC50 (cytotoxicity), U2OS
Procedure: as §4, §2, §3

[2] = Homo sapiens, MCF7, 72 h, read-out: IC50 (cytotoxicity), MCF-7, MTT, 72 h incubation
[3] = Homo sapiens, HCT-116, 72 h, read-out: IC50 (cytotoxicity), HCT 116 wt, MTT, 72 h incubation

Which IC50 (A549) does the source give for CC[Si](CC)(CC)OC1OC(=O)C(Br)=C1Br (stereo not drawn) [Compound 3d, 3,4-Dibromo-5-(trietylsilyloxy)-furan-2(5H)-one] here?
The IC50 was 4.7 ± 0.1 µM.

What about the SI (A549) of the same compound?
The SI was 1.72.

And the IC50 (HCT 116 p53−/−; HCT-116, 72 h)?
Its IC50 is 4.4 ± 0.4 µM.

What about the IC50 at 72 h [1] of the same compound?
Its IC50 at 72 h is 8.1 ± 1.2 µM.

And the IC50 (MCF-7; [2])?
Its IC50 is 89 µM.

What about the IC50 (MCF-7; human, 72 h) of the same compound?
The IC50 was 89.2 ± 6 µM.

What about the IC50 (HCT 116 wt; [3]) of the same compound?
The IC50 was 1.6 ± 0.4 µM.

What does the source list for CC(C)(C)[Si](C)(C)OC1OC(=O)C(Br)=C1Br (stereo not drawn) [Compound 3a, 3,4-Dibromo-5-(tert-butyldimethylsilyloxy)-furan-2(5H)-one]?
IC50 (A549): 23.4 ± 6.6 µM; SI (A549): 6.05; IC50 (HT-29; HT-29, 72 h): 88.7 ± 8.2 µM; IC50 (Hep3B): 135 ± 6.1 µM; IC50 (HepG2): 135 ± 6 µM; IC50 (HCT 116 p53−/−; HCT-116, 72 h): 21.4 ± 3.4 µM; IC50 at 72 h [1]: 142 ± 23.1 µM; IC50 (MCF-7; [2]): 186 ± 14.2 µM; IC50 (HCT 116 wt; [3]): 1.4 µM; IC50 (HCT 116 wt; human, 72 h): 1.3 ± 0.12 µM; IC50 (SJSA-1): 196 ± 5.4 µM; induction of apoptosis / cell death in HCT-116 (HCT-116 cells): failed to induce apoptosis

Which results are given for O=c1[nH]cc(F)c(=O)[nH]1 [5FU, 5-fluorouracil, reference compound]?
IC50 (HT-29; HT-29, MTT, 72 h incubation): 32.8 ± 4.7 µM; IC50 (U2OS): 89.8 ± 2.1 µM; IC50 (HCT 116 p53−/−; HCT-116, MTT, 72 h incubation): 13.4 ± 1.5 µM; IC50 (MCF-7; Homo sapiens, MCF7, 72 h, MTT, 72 h incubation, read-out: IC50 (cytotoxicity), MCF-7): 29.7 ± 1.4 µM; IC50 (HCT 116 wt; Homo sapiens, HCT-116, 72 h, MTT, 72 h incubation, read-out: IC50 (cytotoxicity), HCT 116 wt): 6.3 ± 1 µM
